These results are taken from patent US4792550A, “13-aza-14-oxo-TXA2 analogues” (Ono Pharmaceutical Co., Ltd., priority 1984, dated 1988).

Test [1] concerns platelet aggregation induced by STA2 in human blood. Briefly: Inhibitory activity of platelet aggregation induced by STA2 in human blood. Type of test: cell-based. The following applies: method of Born, read-out: concentrations required 50% inhibition on platelet aggregation (IC50). As for the experimental part: (i) concentrations required 50% inhibition (IC50) on platelet aggregation using human blood induced by STA2 (9,11-epithio-15-hydroxy-11a-carbathromb-5Z,13E-dienoic acid), and
(i) Inhibitory activitv of platelet aggregation induced by STA2 in human blood
Whole blood of healthy human adult was collected with citric acid, and the mixture (20 ml) was centrifuged (180×g) for 10 min. The surpernatant obtained was diluted with sufficient platelet poor plasma to obtain plasma which contains 300,000 platelet cells per μl.
A solution of tested compound in ethanol (1 μl) was added to the obtained plasma (250 μl), and then a solution of STA2 in ethanol was added to the mixture. The measurement was carried out followed by the method of Born and then IC50 was calculated.

The test system of test [2] is contraction of artery induced by STA2. Briefly: Inhibitory activity on contraction of artery (increase of blood pressure) induced by STA2 in guinea pig. Type of test: in vivo. The settings on record: male guinea pig, 100 μg/kg i.v., blood pressure at carotid artery; for inhibition in vivo at 0.1 mg/kg: Cavia porcellus, iv, read-out: Inhibitory ratios on contraction of artery. As for the experimental part:
(ii) inhibitory percentages on contraction of artery induced by STA2 in guinea pigs.
(ii) Inhibitory activity of increasing of blood pressure
A glycine-sodium hydroxide buffer solution (pH 10) of tested compound was administered intravenously to a urethaneanaesthetized male guinea pig weighing 200-350 g, at a rate of 100 μg/kg animal body weight via carotid vein.
And a solution of STA2 in phosphate buffer (pH 7.4) was administered intravenously. Change of the blood pressure was measured at carotid artery and then inhibition ratio (%) was calculated.

Read-outs that look alike come from different tables or passages of the source.

As for `CC(C)C(O)C(=O)N[C@H]1C[C@H]2C[C@@H]([C@@H]1C/C=C\CCCC(=O)O)C2(C)C` (single isomer, unassigned) [1(jj)], the IC50 in test [1] (Homo sapiens, Platelet) worked out at 300 nM. In addition, the “Inhibitory ratios on contraction of artery” value in test [2] is listed as 46.8%. Regarding `CC(C)C(O)C(=O)N[C@H]1C[C@H]2C[C@@H]([C@@H]1C/C=C\CCCC(=O)O)C2(C)C` (single isomer, unassigned) [1(kk)], in test [1], the IC50 turned out to be 260 nM. The “Inhibitory ratios on contraction of artery” value in test [2] was determined as 18.5%.

As for `CC1(C)[C@H]2C[C@H](NC(=O)CCSc3ccccc3)[C@@H](C/C=C\CCCC(=O)O)[C@@H]1C2` [1(aa)], the IC50 in test [1] (Homo sapiens, Platelet) came to 290 nM. Further, the inhibition in vivo at 0.1 mg/kg in test [2] came out at 66.4%. `CC1(C)[C@H]2C[C@H](NC(=O)C(O)CCc3ccccc3)[C@@H](C/C=C\CCCC(=O)O)[C@@H]1C2` (some centres unmarked) [1(b)]: the IC50 in test [1] (Homo sapiens, Platelet) was found to be 280 nM. Further, the inhibition in vivo at 0.1 mg/kg in test [2] came out at 75.2%. For the molecule `CCCCCC(O)C(=O)N[C@H]1C[C@H]2C[C@@H]([C@@H]1C/C=C\CCCC(=O)O)C2(C)C` (some centres unmarked) [1(c)], the IC50 in test [1] (Homo sapiens, Platelet) turned out to be 320 nM. Also, the inhibition in vivo at 0.1 mg/kg in test [2] was found to be 71.2%. As for `CC1(C)[C@H]2C[C@H](NC(=O)CC3Cc4ccccc4C3)[C@@H](C/C=C\CCCC(=O)O)[C@@H]1C2` [1(cc)], the IC50 in test [1] (Homo sapiens, Platelet) stood at 710 nM. As for `CCC(C)CC(=O)N[C@H]1C[C@H]2C[C@@H]([C@@H]1C/C=C\CCCC(=O)O)C2(C)C` (some centres unmarked) [1(dd)], the IC50 in test [1] (Homo sapiens, Platelet) came out at 550 nM. Moreover, the inhibition in vivo at 0.1 mg/kg in test [2] came to 37.1%.

Consider `CC(C)CC(=O)N[C@H]1C[C@H]2C[C@@H]([C@@H]1C/C=C\CCCC(=O)O)C2(C)C` [1(ee)], for which the IC50 in test [1] (Homo sapiens, Platelet) amounted to 380 nM. In addition, in test [2], the inhibition in vivo at 0.1 mg/kg worked out at 39%. The matching figures for `CC(C)CCC(=O)N[C@H]1C[C@H]2C[C@@H]([C@@H]1C/C=C\CCCC(=O)O)C2(C)C` [1(hh)]: 300 nM and 42%. Taken in the same sequence, the figures for `CC1(C)[C@H]2C[C@H](NC(=O)C3CCCC3)[C@@H](C/C=C\CCCC(=O)O)[C@@H]1C2` [1(o)] were 560 nM and 34.2%.

`CC1(C)[C@H]2C[C@H](NC(=O)CCCc3cccc(Cl)c3)[C@@H](C/C=C\CCCC(=O)O)[C@@H]1C2` [1(r)]: in test [1] (Homo sapiens, Platelet), the IC50 was 670 nM. In addition, the inhibition in vivo at 0.1 mg/kg in test [2] worked out at 58.6%. The matching figures for `CC(CC(=O)N[C@H]1C[C@H]2C[C@@H]([C@@H]1C/C=C\CCCC(=O)O)C2(C)C)Cc1ccccc1` (some centres unmarked) [1(w)]: 190 nM and 60.5%. As to `CC1(C)[C@H]2C[C@H](NC(=O)CC3CCCC3)[C@@H](C/C=C\CCCC(=O)O)[C@@H]1C2` [2(g)], the IC50 in test [1] (Homo sapiens, Platelet) worked out at 420 nM. For the same molecule, the inhibition in vivo at 0.1 mg/kg in test [2] was 39%.

Turning to `CC1(C)[C@H]2C[C@H](NC(=O)C(Cl)C3CCCC3)[C@@H](C/C=C\CCCC(=O)O)[C@@H]1C2` (some centres unmarked) [2(h)], in test [1] (Homo sapiens, Platelet), the IC50 was found to be 450 nM. Further, the inhibition in vivo at 0.1 mg/kg in test [2] is 57.6%. As for `CCCCC(=O)N[C@H]1C[C@H]2C[C@@H]([C@@H]1C/C=C\CCCC(=O)O)C2(C)C` [2(j)], in test [1] (Homo sapiens, Platelet), the IC50 was determined as 560 nM. Also, the inhibition in vivo at 0.1 mg/kg in test [2] worked out at 27.3%. In the case of `CC1(C)[C@H]2C[C@H](NC(=O)CCCc3ccccc3)[C@@H](C/C=C\CCCC(=O)O)[C@@H]1C2` [3(c)], in test [1] (Homo sapiens, Platelet), the IC50 worked out at 430 nM. Moreover, the inhibition in vivo at 0.1 mg/kg in test [2] is 78.1%. The matching figures for `CC1(C)[C@H]2C[C@H](NC(=O)CCCCc3ccccc3)[C@@H](C/C=C\CCCC(=O)O)[C@@H]1C2` [3(g)]: 630 nM and 60.5%. Turning to `CCCCCC(=O)N[C@H]1C[C@H]2C[C@@H]([C@@H]1C/C=C\CCCC(=O)O)C2(C)C` [Example 6, 9α,11α-dimethylmethano-13-aza-14-oxo-20-nor-11a-carbathromb-5Z-enoic acid], the IC50 in test [1] (Homo sapiens, Platelet) amounted to 670 nM. Besides, the inhibition in vivo at 0.1 mg/kg in test [2] is 78.1%.
